Measured values: the supplement of paper PMC10307832

Assays:
Experiment in all cases: relative viability (nuclei count vs DMSO), 5 days (fraction); higher = more cells survive
PC-3 [JPC-3] = test system: PC-3 [JPC-3]
Procedure, shortened: (§1)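 Values are medians from duplicate plates. Each reflects relative viability, defined as the nuclei count of treated wells over that of vehicle wells. Lung cancer cell lines in 1536-well plates were pin-tool dosed one day after seeding with one drug alone or with a fixed anchor-drug dose plus five library-drug doses (not always all listed) in √10 steps, then fixed, stained and imaged at 4× after 5 days.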

NCI-H650 = test system: NCI-H650
Procedure, shortened: as §1

A-427 = test system: A-427
Procedure, shortened: as §1

PC-14 = test system: PC-14
Procedure, shortened: as §1

NCI-H727 = test system: NCI-H727
Procedure, shortened: as §1

NCI-H460 = test system: NCI-H460
Procedure, shortened: as §1

NCI-H1793 = test system: NCI-H1793
Procedure, shortened: as §1

H3255 = test system: H3255
Procedure, shortened: as §1

COR-L23 = test system: COR-L23
Procedure, shortened: as §1

SW 1573 = test system: SW 1573
Procedure, shortened: as §1

NCI-H1563 = test system: NCI-H1563
Procedure, shortened: as §1

NCI-H23 = test system: NCI-H23
Procedure, shortened: as §1

NCI-H838 = test system: NCI-H838
Procedure, shortened: as §1

LK-2 = test system: LK-2
Procedure, shortened: as §1

SW 900 = test system: SW 900
Procedure, shortened: as §1

LCLC-103H = test system: LCLC-103H
Procedure, shortened: as §1

HCC-44 = test system: HCC-44
Procedure, shortened: as §1

201T = test system: 201T
Procedure, shortened: as §1

NCI-H1944 = test system: NCI-H1944
Procedure, shortened: as §1

LU99A = test system: LU99A
Procedure, shortened: as §1

NCI-H2347 = test system: NCI-H2347
Procedure, shortened: as §1

LCLC-97TM1 = test system: LCLC-97TM1
Procedure, shortened: as §1

NCI-H1650 = test system: NCI-H1650
Procedure, shortened: as §1

## Oc1nc(-c2ccc(C(F)(F)F)cc2)nc2c1CSCC2 [XAV939] + CCNC(=O)c1noc(-c2cc(C(C)C)c(O)cc2O)c1-c1ccc(CN2CCOCC2)cc1 [Luminespib] (partner 0.01 µM)
PC-3 [JPC-3]; first compound 0.08 µM
  relative viability: 0.829
PC-3 [JPC-3]; first compound 0.253 µM
  relative viability: 0.647
PC-3 [JPC-3]; first compound 0.8 µM
  relative viability: 0.68
PC-3 [JPC-3]; first compound 2.53 µM
  relative viability: 0.635
NCI-H650; first compound 0.08 µM
  relative viability: 0.858
NCI-H650; first compound 0.253 µM
  relative viability: 0.75
NCI-H650; first compound 0.8 µM
  relative viability: 0.93
NCI-H650; first compound 2.53 µM
  relative viability: 0.745
A-427; first compound 0.08 µM
  relative viability: 1.15
A-427; first compound 0.253 µM
  relative viability: 0.978
A-427; first compound 0.8 µM
  relative viability: 0.753
A-427; first compound 2.53 µM
  relative viability: 0.782
PC-14; first compound 0.08 µM
  relative viability: 0.163
PC-14; first compound 0.253 µM
  relative viability: 0.174
PC-14; first compound 0.8 µM
  relative viability: 0.164
PC-14; first compound 2.53 µM
  relative viability: 0.179
NCI-H727; first compound 0.08 µM
  relative viability: 0.31
NCI-H727; first compound 0.253 µM
  relative viability: 0.345
NCI-H727; first compound 0.8 µM
  relative viability: 0.472
NCI-H727; first compound 2.53 µM
  relative viability: 0.342
NCI-H460; first compound 0.08 µM
  relative viability: 0.0319
NCI-H460; first compound 0.253 µM
  relative viability: 0.0395
NCI-H460; first compound 0.8 µM
  relative viability: 0.0405
NCI-H460; first compound 2.53 µM
  relative viability: 0.0235
NCI-H1793; first compound 0.08 µM
  relative viability: 0.223
NCI-H1793; first compound 0.253 µM
  relative viability: 0.186
NCI-H1793; first compound 0.8 µM
  relative viability: 0.176
NCI-H1793; first compound 2.53 µM
  relative viability: 0.185
H3255; first compound 0.08 µM
  relative viability: 1.09
H3255; first compound 0.253 µM
  relative viability: 0.879
H3255; first compound 0.8 µM
  relative viability: 0.804
H3255; first compound 2.53 µM
  relative viability: 0.907
COR-L23; first compound 0.08 µM
  relative viability: 0.929
COR-L23; first compound 0.253 µM
  relative viability: 0.642
COR-L23; first compound 0.8 µM
  relative viability: 0.615
COR-L23; first compound 2.53 µM
  relative viability: 0.792
SW 1573; first compound 0.08 µM
  relative viability: 0.691
SW 1573; first compound 0.253 µM
  relative viability: 0.249
SW 1573; first compound 0.8 µM
  relative viability: 0.136
SW 1573; first compound 2.53 µM
  relative viability: 0.226
NCI-H1563; first compound 0.08 µM
  relative viability: 0.617
NCI-H1563; first compound 0.253 µM
  relative viability: 0.481
NCI-H1563; first compound 0.8 µM
  relative viability: 0.505
NCI-H1563; first compound 2.53 µM
  relative viability: 0.489
NCI-H23; first compound 0.08 µM
  relative viability: 0.251
NCI-H23; first compound 0.253 µM
  relative viability: 0.214
NCI-H23; first compound 0.8 µM
  relative viability: 0.224
NCI-H23; first compound 2.53 µM
  relative viability: 0.221
NCI-H838; first compound 0.08 µM
  relative viability: 0.338
NCI-H838; first compound 0.253 µM
  relative viability: 0.37
NCI-H838; first compound 0.8 µM
  relative viability: 0.325
NCI-H838; first compound 2.53 µM
  relative viability: 0.304
LK-2; first compound 0.08 µM
  relative viability: 0.202
LK-2; first compound 0.253 µM
  relative viability: 0.183
LK-2; first compound 0.8 µM
  relative viability: 0.192
LK-2; first compound 2.53 µM
  relative viability: 0.167
SW 900; first compound 0.08 µM
  relative viability: 0.171
SW 900; first compound 0.253 µM
  relative viability: 0.18
SW 900; first compound 0.8 µM
  relative viability: 0.183
SW 900; first compound 2.53 µM
  relative viability: 0.151
LCLC-103H; first compound 0.08 µM
  relative viability: 1.09
LCLC-103H; first compound 0.253 µM
  relative viability: 0.934
LCLC-103H; first compound 0.8 µM
  relative viability: 0.971
LCLC-103H; first compound 2.53 µM
  relative viability: 0.799
HCC-44; first compound 0.08 µM
  relative viability: 1.61
HCC-44; first compound 0.253 µM
  relative viability: 0.981
HCC-44; first compound 0.8 µM
  relative viability: 1.12
HCC-44; first compound 2.53 µM
  relative viability: 0.974
201T; first compound 0.08 µM
  relative viability: 1.02
201T; first compound 0.253 µM
  relative viability: 0.994
201T; first compound 0.8 µM
  relative viability: 1.05
201T; first compound 2.53 µM
  relative viability: 0.877
NCI-H1944; first compound 0.08 µM
  relative viability: 0.843
NCI-H1944; first compound 0.253 µM
  relative viability: 0.676
NCI-H1944; first compound 0.8 µM
  relative viability: 0.788
NCI-H1944; first compound 2.53 µM
  relative viability: 0.595
LU99A; first compound 0.08 µM
  relative viability: 0.277
LU99A; first compound 0.253 µM
  relative viability: 0.253
LU99A; first compound 0.8 µM
  relative viability: 0.254
LU99A; first compound 2.53 µM
  relative viability: 0.195
NCI-H2347; first compound 0.08 µM
  relative viability: 0.419
NCI-H2347; first compound 2.53 µM
  relative viability: 0.248
LCLC-97TM1; first compound 0.08 µM
  relative viability: 0.977
LCLC-97TM1; first compound 0.253 µM
  relative viability: 0.763
LCLC-97TM1; first compound 0.8 µM
  relative viability: 0.835
LCLC-97TM1; first compound 2.53 µM
  relative viability: 0.765
NCI-H1650; first compound 0.08 µM
  relative viability: 0.196
NCI-H1650; first compound 0.253 µM
  relative viability: 0.225
NCI-H1650; first compound 0.8 µM
  relative viability: 0.177
NCI-H1650; first compound 2.53 µM
  relative viability: 0.197
